From patent US10239836B2, “Benzenecarbothioccyclopenta[c] pyrrole-1,3-dione compounds and process for synthesis thereof” (Council of Scientific & Industrial Research, priority 2014, dated 2019)
Read-outs that look alike come from different tables or passages of the source.

Experiments:
[1] = system: LPS induced NO generation in RAW 264.7 cells; test: Inhibition of LPS induced NO generation (nitrite, Griess reagent); type: cell-based, Mouse; conditions: for IC50: read-out: NO inhibition (B) IC50; for Selectivity index (A/B): cytotoxicity IC50 / NO inhibition IC50, RAW 264.7 cells
Experimental: (§1) Mouse macrophage cell line RAW 264.7 was maintained in laboratory at 37° C. in
(§2) RPMI-1640 media supplemented with 10% heat-inactivated fetal bovine serum (FBS) and penicillin/streptomycin.
Nitrite, a stable oxidized product of NO, was measured in culture supernatant using Griess reagent (Sigma Aldrich) according to a previously reported method (2). After overnight seeding in 96-well plate (2×10^4 cells/well), RAW 264.7 cell was treated with lipopolysaccharide (LPS; Sigma) at a concentration of 1 μg/ml along with different doses of compounds (as determined from cytotoxicity assay) in serum-free culture for 24 h. Following treatment, media was collected and centrifuged at 2,000 rpm for 5 min to remove cellular debris. 50 μl of this media was then reacted with equal volume of Griess reagent for 15 min at room temperature in dark and absorbance was taken at 540 nm using Microplate reader (Biorad, USA). Nitrite concentrations were determined using standard solutions of sodium nitrite prepared in cell culture medium.

[2] = Cytotoxicity assay (MTT viability); type: cell-based, Mouse; conditions: mouse; RAW 264.7 cells, MTT, 24 h treatment, serum free
Experimental: as §1, §2
(§3) Viability of cultured cells was determined by (4,5-dimethylthiazol-2-yl)-2,5-diphenyltetrazolium bromide (MTT; Sigma) as described earlier (1). RAW 264.7 was seeded in triplicate at a density of 2×10^4 cells per well on a 96-well plate. […] MTT solution (0.5 mg/ml) was then added to each well and incubate for 4 h at 37° C. At the end of the incubation period, the medium was removed and the resulting purple formazan was solubilized with acidic isopropanol (0.1 N HCl in absolute isopropanol), and the absorbance was read at 570 nm using Biorad Microplate reader (Biorad, USA).

[3] = system: H1N1 virus; conditions: MDCK cells; Yang et al., Organic Letter 2013; cited from earlier work
[4] = system: RAW 264.7 cells; test: Cytotoxicity assay (MTT viability); type: cell-based, Mouse
Experimental: as §1, §2, §3

[5] = Mus musculus, RAW264.7, RAW 264.7 cells, LPS 1 μg/ml, 24 h, serum-free

SMILES	IC50 [1, 5] [µM]	Selectivity index (A/B) [1]	IC50 at 24 h [2] [µM]	melting point [°C]	inhibitory activities against the H1N1 virus [3]	IC50 ([1]; Mus musculus, RAW264.7, 24 h) [µM]	IC50 ([1]; RAW 264.7 cells, LPS 1 μg/ml, 24 h, serum-free) [µM]	IC50 [4] [µM]
O=C(S[C@@]12CC[C@H](O)[C@@H]1C(=O)NC2=O)c1ccccc1Cl (relative stereo) [Compound 13, S-((3aS*,6S*,6aR*)-6-Hydroxy-1,3-dioxohexahydrocyclopenta[c]pyrrol-3a(1H)-yl) 2-chlorobenzothioate]	127	5.245	668	173 to 174				
O=C(S[C@]12CCC[C@H]1C(=O)NC2=O)c1ccc(F)cc1 (relative stereo) [Compound 20, S-((3aR*,6aS*)-1,3-Dioxohexahydrocyclopenta[c]pyrrol-3a(1H)-yl) 4-fluorobenzothioate]	390	0.9841	384	186 to 187				
O=C(S[C@@]12CC[C@H](O)[C@@H]1C(=O)NC2=O)c1ccc(O)cc1 [Nitrosporeusine A]					exhibited inhibitory activities			
O=C(S[C@@]12CC[C@@H](O)[C@@H]1C(=O)NC2=O)c1ccccc1Cl (relative stereo) [Compound 14, S-((3aS*,6R*,6aR*)-6-Hydroxy-1,3-dioxohexahydrocyclopenta[c]pyrrol-3a(1H)-yl) 2-chlorobenzothioate]	178	4.022	717	154 to 158				
O=C(Cc1ccccc1)SC12CCC=C1C(=O)NC2=O (stereo not drawn) [Compound 27, S-(1,3-Dioxo-2,3,4,5-tetrahydrocyclopenta[c]pyrrol-3a(1H)-yl) 2-phenylethanethioate]	30.6	3.042	93.1	155 to 158				
O=C(S[C@@]12CC[C@@H](O)[C@@H]1C(=O)NC2=O)c1ccc(O)cc1 [Nitrosporeusine B]					exhibited inhibitory activities			
O=C(S[C@]12CCC[C@H]1C(=O)NC2=O)c1ccccc1Cl (relative stereo) [Compound 21, S-((3aR*,6aS*)-1,3-Dioxohexahydrocyclopenta[c]pyrrol-3a(1H)-yl) 2-chlorobenzothioate]	59.8	13.95	834	188 to 190				
CC(=O)OC1CC[C@]2(SC(=O)c3ccccc3Cl)C(=O)NC(=O)[C@H]12 (relative stereo) [Compound 34, (3aS*,6aR*)-6a-((2-Chlorobenzoyl)thio)-1,3-dioxooctahydrocyclopenta[c]pyrrol-4-yl acetate]	101	89.51	9080					
O=C1NC(=O)C2=C1CCC2SC(=O)c1cccs1 (stereo not drawn) [Compound 29, S-(1,3-Dioxo-1,2,3,4,5,6-hexahydrocyclopenta[c]pyrrol-4-yl) thiophene-2-carbothioate]	65	0.4108	26.7	138 to 139				
O=C(S[C@]12CC[C@H](O)[C@H]1C(=O)NC2=O)c1ccc(O)cc1 [(−)-2, S-((3aR,6S,6aS)-6-hydroxy-1,3-dioxohexahydrocyclopenta[c]pyrrol-3a(1H)-yl) 4-hydroxybenzothioate]	140	9.85	1380					
CC(=O)S[C@@]12CC[C@@H](O)[C@@H]1C(=O)NC2=O (relative stereo) [Compound 8, S-((3aS*,6R*,6aR*)-6-Hydroxy-1,3-dioxohexahydrocyclopenta[c]pyrrol-3a(1H)-yl) ethanethioate]	833	1.029	857	120 to 129				
O=C1NC(=O)C2(SC(=O)c3ccc(F)cc3)CCC=C12 (stereo not shown)				191 to 192				
O=C(S[C@@]12CC[C@@H](O)[C@@H]1C(=O)NC2=O)c1ccccc1 (relative stereo) [Compound 16, S-((3aS*,6R*,6aR*)-6-Hydroxy-1,3-dioxohexahydrocyclopenta[c]pyrrol-3a(1H)-yl) benzothioate]	65.2	261.7025	17100	180 to 182				
O=C(SC1CC[C@]2(SC(=O)c3ccc(F)cc3)C(=O)NC(=O)[C@H]12)c1ccc(F)cc1 (relative stereo) [Compound 23, S,S′-((3aR*,6aR*)-1,3-Dioxohexahydrocyclopenta[c]pyrrole-3a,6(1H)-diyl) bis(4-fluorobenzothioate)]		2.142	211			98.3		
O=C1NC(=O)C2=C1CCC2O (stereo in doubt) [(+)-4, (S)-4-Hydroxy-5,6-dihydrocyclopenta[c]pyrrole-1,3(2H,4H)-dione]	95.9	2.26	217					
CC(=O)S[C@]12CCC[C@H]1C(=O)NC2=O (relative stereo) [Compound 18, S-((3aR*,6aS*)-1,3-Dioxohexahydrocyclopenta[c]pyrrol-3a(1H)-yl) ethanethioate]	59.2	11.39	674	120 to 122				
CC(=O)SC12CCC=C1C(=O)NC2=O (stereo not drawn) [Compound 26, S-(1,3-Dioxo-2,3,4,5-tetrahydrocyclopenta[c]pyrrol-3a(1H)-yl)ethanethioate]	20.5	9	184	170 to 172				
O=C(S[C@@]12CC[C@@H](O)[C@@H]1C(=O)NC2=O)c1ccc(F)cc1 (relative stereo) [Compound 11, S-((3aS*,6R*,6aR*)-6-Hydroxy-1,3-dioxohexahydrocyclopenta[c]pyrrol-3a(1H)-yl) 4-fluorobenzothioate]	318	1.49	474	184 to 186				
O=C(S[C@@]12CC[C@@H](O)[C@@H]1C(=O)NC2=O)c1ccccc1O (relative stereo)				213 to 216				
CC(=O)O[C@@H]1CCC2=C1C(=O)NC2=O [(−)-5, (R)-1,3-dioxo-1,2,3,4,5,6-hexahydrocyclopenta[c]pyrrol-4-yl]							867	128
O=C1NC(=O)C2=C1CCC2O (stereo in doubt) [(−)-4, (R)-4-Hydroxy-5,6-dihydrocyclopenta[c]pyrrole-1,3(2H,4H)-dione]	121	2.631	319					
O=C(S[C@]12CC[C@@H](O)[C@H]1C(=O)NC2=O)c1ccccc1 (relative stereo) [Compound 15, S-((3aR*,6R*,6aS*)-6-Hydroxy-1,3-dioxohexahydrocyclopenta[c]pyrrol-3a(1H)-yl) benzothioate]	72.4	6.622	479	185 to 186				
O=C1NC(=O)C2=C1CCC2SC(=O)c1ccccc1 (stereo not shown)				149 to 151				
O=C(S[C@@]12CC[C@H](O)[C@@H]1C(=O)NC2=O)c1ccc(O)cc1 [(+)-1, S-((3aS,6S,6aR)-6-hydroxy-1,3-dioxohexahydrocyclopenta[c]pyrrol-3a(1H)-yl) 4-hydroxybenzothioate]	71.8	14.14	1020					
